Numbers after ± are expanded uncertainties.
Experiments:
[1] = Liquid; for mass density: Vibrating tube method; for speed of sound: Pulse-echo method; for viscosity: Capillary tube (Ostwald / Ubbelohde) method
[2] = refractive index (Na D-line) (dimensionless); conditions: 298.15 K; 101.33 kPa; Liquid; Standard Abbe refractometry
[3] = xn = mol fraction of the nth substance listed; conditions: 101 kPa, Liquid, x1 = 1; for speed of sound: Pulse-echo method; for viscosity: Capillary tube (Ostwald / Ubbelohde) method; for mass density: Vibrating tube method

SMILES | mass density ([1]; 283.15 K, 101.33 kPa) | mass density ([1]; 285.64 K, 101.33 kPa) | mass density ([1]; 293.14 K, 101.33 kPa) | speed of sound ([1]; 293.15 K, 101 kPa) | mass density ([1]; 295.64 K, 101.33 kPa) | viscosity ([1]; 298.15 K, 101.33 kPa) | speed of sound ([1]; 298.15 K, 101.33 kPa) | mass density ([1]; 300.65 K, 101.33 kPa) | viscosity ([1]; 303.15 K, 101 kPa) | speed of sound ([1]; 303.15 K, 101 kPa) | mass density ([1]; 303.15 K, 101 kPa) | mass density ([1]; 305.64 K, 101.33 kPa) | viscosity ([1]; 308.15 K, 101 kPa) | speed of sound ([1]; 308.15 K, 101 kPa) | viscosity ([1]; 313.15 K, 101 kPa) | speed of sound ([1]; 313.15 K, 101 kPa) | mass density ([1]; 313.15 K, 101 kPa) | mass density ([1]; 315.65 K, 101.33 kPa) | mass density ([1]; 323.15 K, 101.33 kPa) | refractive index [2] | other results
OCCO [1,2-ethanediol] | 1120.32 ± 0.18 kg/m3 | 1118.6 ± 0.18 kg/m3 | 1113.37 ± 0.17 kg/m3 | 1666.7 ± 1.4 m/s | 1111.62 ± 0.17 kg/m3 | 16.95 ± 0.14 mPa·s | 1654.9 ± 1.4 m/s | 1108.12 ± 0.17 kg/m3 | 13.83 ± 0.1 mPa·s | 1643.1 ± 1.4 m/s | 1106.46 ± 0.17 kg/m3 | 1104.61 ± 0.17 kg/m3 | 11.44 ± 0.083 mPa·s | 1631.2 ± 1.4 m/s | 9.565 ± 0.071 mPa·s | 1619.3 ± 1.4 m/s | 1099.23 ± 0.17 kg/m3 | 1097.52 ± 0.17 kg/m3 | 1092.15 ± 0.17 kg/m3 | 1.4307 ± 0.0005 | mass density ([1]; 290.64 K, 101.33 kPa): 1115.12 ± 0.17 kg/m3; mass density ([1]; 303.15 K, 101.33 kPa): 1106.37 ± 0.17 kg/m3; mass density ([1]; 310.65 K, 101.33 kPa): 1101.07 ± 0.17 kg/m3; mass density ([1]; 313.14 K, 101.33 kPa): 1099.3 ± 0.17 kg/m3; mass density ([1]; 320.64 K, 101.33 kPa): 1093.95 ± 0.17 kg/m3
OCCO [1,2-ethanediol] + CCCCCCCCCO |  |  |  |  |  |  |  |  |  |  |  |  |  |  |  |  |  |  |  |  | speed of sound ([3]; 293.15 K): 1666.7 ± 1.4 m/s; viscosity ([3]; 298.15 K): 16.95 ± 0.12 mPa·s; speed of sound ([3]; 298.15 K): 1654.9 ± 1.4 m/s; viscosity ([3]; 303.15 K): 13.83 ± 0.1 mPa·s; speed of sound ([3]; 303.15 K): 1643.1 ± 1.4 m/s; mass density ([3]; 303.15 K): 1106.46 ± 0.17 kg/m3; viscosity ([3]; 308.15 K): 11.44 ± 0.083 mPa·s; speed of sound ([3]; 308.15 K): 1631.2 ± 1.4 m/s; viscosity ([3]; 313.15 K): 9.565 ± 0.071 mPa·s; speed of sound ([3]; 313.15 K): 1619.3 ± 1.4 m/s; mass density ([3]; 313.15 K): 1099.23 ± 0.17 kg/m3
CCCCCCCCCO [nonan-1-ol] | 834.614 ± 0.25 kg/m3 | 832.923 ± 0.25 kg/m3 | 827.816 ± 0.25 kg/m3 | 1381.6 ± 1.6 m/s | 826.106 ± 0.25 kg/m3 | 9.494 ± 0.084 mPa·s | 1364.4 ± 1.6 m/s | 822.671 ± 0.25 kg/m3 | 7.994 ± 0.068 mPa·s | 1347.4 ± 1.6 m/s | 821.05 ± 0.25 kg/m3 | 819.22 ± 0.25 kg/m3 | 6.713 ± 0.057 mPa·s | 1330.5 ± 1.6 m/s | 5.657 ± 0.05 mPa·s | 1313.6 ± 1.6 m/s | 814.19 ± 0.25 kg/m3 | 812.251 ± 0.25 kg/m3 | 806.96 ± 0.25 kg/m3 | 1.4323 ± 0.0005 | mass density ([1]; 288.15 K, 101.33 kPa): 831.224 ± 0.25 kg/m3; mass density ([1]; 290.65 K, 101.33 kPa): 829.521 ± 0.25 kg/m3; mass density ([1]; 298.14 K, 101.33 kPa): 824.391 ± 0.25 kg/m3; mass density ([1]; 298.15 K, 101.33 kPa): 824.48 ± 0.26 kg/m3; mass density ([1]; 303.14 K, 101.33 kPa): 820.949 ± 0.25 kg/m3; mass density ([1]; 308.14 K, 101.33 kPa): 817.486 ± 0.25 kg/m3; mass density ([1]; 308.15 K, 101 kPa): 817.57 ± 0.25 kg/m3; mass density ([1]; 310.64 K, 101.33 kPa): 815.748 ± 0.25 kg/m3; mass density ([1]; 313.15 K, 101.33 kPa): 814.001 ± 0.25 kg/m3; mass density ([1]; 318.15 K, 101.33 kPa): 810.496 ± 0.25 kg/m3; mass density ([1]; 320.65 K, 101.33 kPa): 808.73 ± 0.25 kg/m3

Reference: the NIST ThermoML archive (doi:10.1016/j.jct.2008.09.018)
